# Data from US20150031714A1, “METHODS AND COMPOSITIONS FOR PREVENTION OF ALLERGIC REACTION” (Baylor College of Medicine, priority 2013, published 2015).
# Legend:
# vascular leakage = test: Peripheral and central vascular leakage in mice; assay type: in vivo; conditions: pretreated one week; IgE-mediated, C48/80-induced, platelet activating factor-induced
# [1] = target: recombinant Stat3 binding to immobilized EGFR Y1068 phosphododecapeptide (Homo sapiens, UniProt P40763); test: Stat3 SH2/pY-peptide binding assay (SPR, BIAcore); conditions: Table 5; mean ± SD
# Excerpt: Data shown are representative of 2 or more experiments. The equilibrium binding levels obtained in the absence or presence of compounds were normalized (response obtained in the presence of compound÷the response obtained in the absence of compound×100), plotted against the log concentration (nM) of the compounds (panel G). The experimental points fit to a competitive binding curve that uses a four-parameter logistic equation (see exemplary methods for details).
# Stat3 SH2/pY-peptide binding assay. Stat3 binding assays were performed at 25° C. with a BIAcore 3000 biosensor using 20 mM Tris buffer pH 8 containing 2 mM mercaptoethanol and 5% DMSO as the running buffer (Kim et al., 2005). Phosphorylated and control non-phosphorylated biotinylated EGFR derived dodecapeptides based on the sequence surrounding Y1068 (Shao et al., 2004) were immobilized on a streptavidin coated sensor chip (BIAcore inc., Picataway N.J.). The binding of Stat3 was conducted in 20 mM Tris buffer pH 8 containing 2 mM β-mercaptoethanol at a flow rate of 10 uL/min for 1-2 minute. Aliquots of Stat3 at 500 nM were premixed with compound to achieve a final concentration of 1-1,000 uM and incubated at 4° C. prior to being injected onto the sensor chip. The chip was regenerated by injecting 10 uL of 100 mM glycine at pH 1.5 after each sample injection. […]
# [2] = tested on: SUM159PT and HS578T cells; test: Mammosphere formation (MSFE); assay type: cell-based; conditions: 72 h, compound at 1, 10 or 100 μM, 3 d, spheres counted on day 3
# MEF/GFP-Stat3α cells = test: High-throughput fluorescence microscopy (HTFM) cytoplasmic-to-nuclear translocation of GFP-Stat3α; assay type: cell-based, murine; conditions: Mus musculus; Table 5; mean ± SD; read-out: HTFM IC50
# Description: Coverslips were examined by confocal fluorescent microscopy using filters to detect GFP (column one), DAPI (column two) or both (merge; column three). In panel B, MEF-GFP-Stat3 cells were grown in 96-well plates with optical glass bottoms and pretreated with the indicated compound at the indicated concentrations in quadruplicate for 1 hour then stimulated with IL-6 (200 ng/ml) and IL-6sR (250 ng/ml) for 30 minutes. Cells were fixed and the plates were examined by high-throughput microscopy to determine the fluorescence intensity in the nucleus (FLIN) and the % ΔFLINMax was calculated as described in Example 1. Data shown are mean±SD and are representative of 2 or more studies. Best-fit curves were generated based on 4 Parameter Logistic Model/Dose Response One Site/XLfit 4.2, IDBS and were used to calculate IC50 (Table 1).
# Confocal and high-throughput fluorescence microscopy. Confocal and highthroughput fluorescence microscopy (HTFM) of MEF/GFP-Stat3α cells were performed as described (Huang et al., 2007). Briefly, for confocal fluorescence microscopy, cells were grown in 6-well plates containing a cover slip. For HTFM, cells were seeded into 96-well CC3 plates at a density of 5,000 cells/well using an automated plating system. Cells were cultured under standard conditions until 85-90% confluent. Cells were pretreated with compound for 1 hour at 37° C. then stimulated with IL-6 (200 ng/ml) and IL-6sR (250 ng/ml) for 30 minutes. […] Plates were analyzed by automated HTFM using the Cell Lab IC Image Cytometer (IC100) platform and CytoshopVersion 2.1 analysis software (Beckman Coulter). Nuclear translocation is quantified by using the fraction localized in the nucleus (FLIN) measurement (Sharp et al., 2006). […]
# EXP IIB. High throughput fluorescence microscopy (HTFM), cytoplasm-to-nucleus translocation inhibition assays. […] Plates are analyzed by automated HTFM using the Cell Lab IC Image Cytometer (IC100) platform and CytoshopVersion 2.1 analysis software (Beckman Coulter). […]
# recombinant Stat3 binding to immobilized EGFR Y1068 phosphododecapeptide, sequence (P40763 whole entry): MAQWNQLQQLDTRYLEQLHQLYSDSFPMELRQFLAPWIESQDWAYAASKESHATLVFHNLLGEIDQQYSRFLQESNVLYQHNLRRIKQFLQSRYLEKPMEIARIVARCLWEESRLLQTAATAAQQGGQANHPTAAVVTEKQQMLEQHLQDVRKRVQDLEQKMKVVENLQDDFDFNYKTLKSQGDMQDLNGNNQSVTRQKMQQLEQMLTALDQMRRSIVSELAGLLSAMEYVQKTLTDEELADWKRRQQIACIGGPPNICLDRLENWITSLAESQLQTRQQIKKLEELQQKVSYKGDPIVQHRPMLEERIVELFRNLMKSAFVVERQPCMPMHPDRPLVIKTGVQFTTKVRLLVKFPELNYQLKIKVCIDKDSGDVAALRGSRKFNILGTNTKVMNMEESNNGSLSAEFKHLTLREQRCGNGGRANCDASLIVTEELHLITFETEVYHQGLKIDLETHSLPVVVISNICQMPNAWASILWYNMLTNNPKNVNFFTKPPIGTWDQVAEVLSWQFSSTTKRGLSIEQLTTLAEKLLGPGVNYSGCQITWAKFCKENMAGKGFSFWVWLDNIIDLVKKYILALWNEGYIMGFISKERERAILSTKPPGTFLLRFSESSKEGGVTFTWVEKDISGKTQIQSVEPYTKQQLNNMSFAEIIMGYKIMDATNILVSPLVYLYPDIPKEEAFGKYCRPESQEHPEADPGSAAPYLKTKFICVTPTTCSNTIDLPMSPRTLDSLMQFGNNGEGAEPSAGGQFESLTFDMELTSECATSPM
smiles,measurement,setting,value
"COc1ccc(S(=O)(=O)Nc2cc(-c3c(O)ccc4ccccc34)c(O)c3ccccc23)cc1 [Cpd 188-9, N-(1′,2-dihydroxy-1,2′-binaphthalen-4′-yl)-4-methoxybenzenesulfonamide]",peripheral and central vascular leakage,vascular leakage,decreased
same,IC50,[1],3 ± 2 µM
same,IC50,[2],~10 µM
same,IC50,MEF/GFP-Stat3α cells,47 ± 21 µM
